Source: patent US6531308B2, “Ketoreductase gene and protein from yeast” (Eli Lilly and Company, priority 1997, dated 2003)

Test system: wild-type ketoreductase from Z. rouxii (SEQ ID NO: 2)
Assay: Reductase activity of Z. rouxii ketoreductase, substrate specificity (NADPH oxidation, absorbance at 340 nm)
Assay type: biochemical
Description: Reductase activity was measured using a suitable substrate and a partially purified or substantially purified ketoreductase from Z. rouxii. Activity was measured as a function of the absorbance change at 340 nm, resulting from the oxidation of NADPH. […] Reaction mixtures were first equilibrated at 26° C. for 10 min in the absence of NADPH, and then initiated by addition of NADPH. […] The kinetic parameters for 3,4-methylenedioxyphenyl acetone were determined at an NADPH concentration of 112 μM and a 3,4-methylenedioxyphenyl acetone concentration that varied from 1.7 mM -7.2 mM. The kinetic parameters for NADPH were determined by maintaining the 3,4-methylenedioxyphenyl acetone concentration at 3 mM and the NADPH concentration was varied from 20.5 μM-236.0 μM. An extinction coefficient of 6220 M^−1 cm^−1 for NADPH absorbance at 340 nm was used to calculate the specific activity of the enzyme. For assays using isatin, the change in absorbance with time was measured at 414 nm using an extinction coefficient of 849 M^−1 cm^−1 to calculate activity. One Unit of activity corresponds to 1 μmol of NADPH consumed per minute. For assays carried out at differing pH values, 10 mM Bis-Tris and 10 mM Tris were adjusted to the appropriate pH with HCl. Kinetic parameters were determined by non-linear regression using the JMP® statistics and graphics program.

CC(=O)CCc1ccc2c(c1)OCO2
% Relative Activity (substrate concentration 5 mM): 18%

CCOC(=O)CC(=O)CCl
% Relative Activity (substrate concentration 5 mM): 42%

CC(C)(CO)C(=O)C(=O)O
% Relative Activity (substrate concentration 4 mM): 37%

CC(=O)c1ccccc1
% Relative Activity (substrate concentration 0.6 mM): 4%

CC(=O)CCc1ccccc1
% Relative Activity (substrate concentration 0.6 mM): 0%

CC1(C)COC(=O)C1=O
% Relative Activity (substrate concentration 3 mM): 194%

O=C1Nc2ccccc2C1=O
% Relative Activity (substrate concentration 0.8 mM): 86%

CC(=O)CN1C(=O)c2ccccc2C1=O
% Relative Activity (substrate concentration 0.6 mM): 17%

CC1(C)[C@H]2CC[C@]1(C)C(=O)C2=O
% Relative Activity (substrate concentration 5 mM): 100%

CC1(C)[C@@H]2CC[C@@]1(C)C(=O)C2=O
% Relative Activity (substrate concentration 5 mM): 32%

CC(=O)Cc1ccc2c(c1)OCO2 [3,4-methylenedioxyphenyl acetone]
% Relative Activity (substrate concentration 3 mM): 100%
